Consider seven compounds from ChEMBL document CHEMBL5143588, “Discovery, Synthesis, and Biological Evaluation of Anaenamides C and D from a New Marine Cyanobacterium, Hormoscilla sp” (J Nat Prod, 2022).

Calls of active or inactive are those of the source. The rule behind the calls is not given here.

For series [1], the system named is HEK293. The series is described as follows: Cytotoxicity against human HEK293-ARE-Luc cells assessed as change in cell viability incubated for 24 hrs by MTT assay. Type of series: toxicity, cell-based. Particulars: hek293, 24 h. For orientation: Formazan colour is commonly taken as a measure of viable cells.
Series [2] has as its target T1, Nuclear factor erythroid 2-related factor 2 (Homo sapiens) (UniProt Q16236).
T1 sequence (whole entry): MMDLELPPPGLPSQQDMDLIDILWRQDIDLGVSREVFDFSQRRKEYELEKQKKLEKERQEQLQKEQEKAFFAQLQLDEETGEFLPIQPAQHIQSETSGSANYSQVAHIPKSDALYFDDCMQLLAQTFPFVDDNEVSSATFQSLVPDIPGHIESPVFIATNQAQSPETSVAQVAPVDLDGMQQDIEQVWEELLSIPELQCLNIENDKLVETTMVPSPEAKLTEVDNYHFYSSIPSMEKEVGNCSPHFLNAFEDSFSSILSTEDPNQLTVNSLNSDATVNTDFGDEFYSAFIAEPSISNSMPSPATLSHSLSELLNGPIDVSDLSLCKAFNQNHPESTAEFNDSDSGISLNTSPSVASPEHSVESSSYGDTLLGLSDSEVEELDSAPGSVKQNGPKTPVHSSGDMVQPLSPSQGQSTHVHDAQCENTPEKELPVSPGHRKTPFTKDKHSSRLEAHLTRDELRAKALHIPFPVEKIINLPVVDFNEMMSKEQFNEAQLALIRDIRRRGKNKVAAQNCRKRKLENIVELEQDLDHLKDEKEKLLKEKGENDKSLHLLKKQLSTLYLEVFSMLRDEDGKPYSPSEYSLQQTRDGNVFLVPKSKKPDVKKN
As to the kind of experiment: Activation of Nrf2 in human HEK293-ARE-Luc cells assessed as fold activation of luciferase activity at 32 uM incubated for 24 hrs by ARE-luciferase reporter gene assay. Format: cell-based. Particulars: filed as activator.

The subject of a further series is HCT-116. As to the kind of experiment: Cytotoxicity against human HCT116 cells assessed as inhibition of cell viability incubated for 48 hrs by MTT assay. Type of series: functional, cell-based. Particulars: HCT-116, 48 h.
The target in series [3] is T1, Nuclear factor erythroid 2-related factor 2 (Homo sapiens). The series is described as follows: Activation of Nrf2 in human HEK293-ARE-Luc cells at 10 to 100 uM incubated for 24 hrs by ARE-luciferase reporter gene assay. Format: cell-based. The conditions noted are these: filed as activator, dose 10-100 µM.
The test system of series [4] is HEK293. As to the kind of experiment: Cytotoxicity against human HEK293-ARE-Luc cells assessed as reduction in cell viability at 10 to 100 uM incubated for 24 hrs by MTT assay. Format: toxicity, cell-based. The conditions noted are these: hek293, 24 h, dose 10-100 µM.
The target in series [5] is T1, Nuclear factor erythroid 2-related factor 2 (Homo sapiens). As to the kind of experiment: Activation of Nrf2 in human HEK293-ARE-Luc cells assessed as fold activation of luciferase activity at 100 uM incubated for 24 hrs by ARE-luciferase reporter gene assay. Format: cell-based. The conditions noted are these: filed as activator. In general terms: Reporter assays use an easily measured gene product as a stand-in for the process of interest.

Consider `CC(C)(C)c1cc(O)ccc1O` [E319], for which the Activity entry with HEK293 [1] was “Non-Toxic”. Besides, the fold change (FC) in series [2] stood at 29.
`CCCCCc1cccc(OC)c1C(=O)O[C@@H](C(=O)O[C@@H](C)C(=O)NC/C=C(\Cl)C(=O)OC)[C@@H](C)CC`: in the series on HCT-116, the IC50 (in general, the point on the concentration scale where inhibition reaches its midpoint) is 9 µM. Also, the result in series [3] was Active. The Activity result with HEK293 [4] is “Toxic”.
Consider `CCCCCc1cccc(OC)c1C(=O)O[C@@H](C(=O)O[C@@H](C)C(=O)NC/C=C(/Cl)C(=O)NC(c1ccccc1)(c1ccccc1)c1ccccc1)[C@@H](C)CC`, for which the fold change (FC) in series [5] was found to be 6.
With `CCCCCc1cccc(OC)c1C(=O)O[C@@H](C(=O)O[C@@H](C)C(=O)NC/C=C(/Cl)C(N)=O)[C@@H](C)CC`, the fold change (FC) in series [2] is 17. Also, the IC50 in the series on HCT-116 was 32 µM.
In the same order, the values of `CCCCCc1cccc(OC)c1C(=O)O[C@@H](C(=O)O[C@@H](C)C(=O)NC/C=C(\Cl)C(N)=O)[C@@H](C)CC` are 15 and 42 µM.
As to `CCCCCc1cccc(OC)c1C(=O)O[C@@H](C(=O)O[C@@H](C)C(=O)NC/C=C(/Cl)C(=O)OC)[C@@H](C)CC`, the IC50 in the series with HCT-116 amounted to 5 µM. Also, the result in series [3] was Active. Also, the Activity result in the series on HEK293 [4] is “Toxic”.
For the compound `CCCCCc1cccc(OC)c1C(=O)O[C@@H](C(=O)O[C@@H](C)C(=O)NC/C=C(\Cl)C(=O)NC(c1ccccc1)(c1ccccc1)c1ccccc1)[C@@H](C)CC`, in series [5], the fold change (FC) worked out at 11.
